How the values were obtained:
[1] = system: 17 different cancer and normal cell lines; assay: cell growth, deep dye drop method; type: cell-based; details: 1 μM for 72 h; 17 cancer and normal cell lines; deep dye drop method (N = 2)
Method: (A) Structure of GW296115. […] Cell lines in the panel were treated with 1 μM GW296115 for 72 h (N = 2) and analyzed using the deep dye drop method. MCF10A and MRC-5 are non-malignant cell lines. […] Coral was used to make (C): https://phanstiel-lab.med.unc.edu/CORAL.
This compound was further profiled in 17 different cancer and normal cell lines to determine whether it impacted cell growth when treated at 1 μM for 72 h. […] Here we further explore the target engagement characteristics of GW296115 in vitro and in cells and capture its specificity for the CAMK family of kinases.

PRKAA2 = target: T1, PRKAA2 (Homo sapiens, UniProt P54646); assay: DiscoverX scanMAX competition binding assay; details: read-out: % inhibition in the DiscoverX scanMAX panel at 1 μM
T1 construct: purchased Eurofins DiscoverX Corporation
Description: (§1) Based on its narrow profile when tested in the combined Nanosyn and TSA panels, GW296115 was included in the recently released Kinase Chemogenomic Set (KCGS)[15]. All of the data presented in the Introduction section was collected prior to the inclusion of GW296115 in KCGS and everything that follows has been subsequently generated. Since its inclusion in PKIS and more recently KCGS, we have carried out a broader round of screening at DiscoverX. This profiling data has not been previously released and is reported here for the first time. GW296115 was profiled against 403 wild type human kinases at 1 μM using the DiscoverX scanMAX screening platform, which employs an active site-directed competition binding assay to quantitatively measure interactions between test compounds and kinases, [16]. GW296115 inhibited 25 kinases > 90% at 1 μM, resulting in a selectivity index (S10) of 0.062 at 1 μM (Table S2, Fig. 1C)[17].
To ascertain selectivity of GW296115 and validate our DiscoverX screening results using an orthogonal assay format, we chose to utilize Eurofins enzymatic kinase assays in dose–response at the Km of ATP.
(§2) The scanMAX assays were performed at Eurofins DiscoverX Corporation as previously described.

CHEK1 = target: T2, CHEK1 (Homo sapiens, UniProt O14757); assay: DiscoverX scanMAX competition binding assay; details: read-out: % inhibition at 1 μM
T2 construct: purchased Eurofins DiscoverX Corporation
T2 sequence (O14757 whole entry): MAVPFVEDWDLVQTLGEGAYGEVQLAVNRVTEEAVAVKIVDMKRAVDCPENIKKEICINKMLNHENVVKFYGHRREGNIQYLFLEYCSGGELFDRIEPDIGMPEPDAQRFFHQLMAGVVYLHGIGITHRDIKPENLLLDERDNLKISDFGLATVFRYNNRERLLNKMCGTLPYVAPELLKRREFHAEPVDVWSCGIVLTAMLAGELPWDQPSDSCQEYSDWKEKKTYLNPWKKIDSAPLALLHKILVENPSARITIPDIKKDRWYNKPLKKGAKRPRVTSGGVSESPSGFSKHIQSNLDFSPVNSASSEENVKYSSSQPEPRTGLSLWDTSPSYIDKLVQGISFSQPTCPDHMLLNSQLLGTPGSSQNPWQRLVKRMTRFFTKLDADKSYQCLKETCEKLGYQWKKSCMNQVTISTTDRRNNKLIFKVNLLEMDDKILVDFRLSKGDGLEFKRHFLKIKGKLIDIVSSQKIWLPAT

MAP2K5/MEK5 = target: T3, MAP2K5/MEK5 (Homo sapiens, UniProt Q13163); assay: Eurofins kinase enzymatic LANCE assay; type: biochemical
T3 construct: purchased Eurofins
T3 sequence (Q13163 whole entry): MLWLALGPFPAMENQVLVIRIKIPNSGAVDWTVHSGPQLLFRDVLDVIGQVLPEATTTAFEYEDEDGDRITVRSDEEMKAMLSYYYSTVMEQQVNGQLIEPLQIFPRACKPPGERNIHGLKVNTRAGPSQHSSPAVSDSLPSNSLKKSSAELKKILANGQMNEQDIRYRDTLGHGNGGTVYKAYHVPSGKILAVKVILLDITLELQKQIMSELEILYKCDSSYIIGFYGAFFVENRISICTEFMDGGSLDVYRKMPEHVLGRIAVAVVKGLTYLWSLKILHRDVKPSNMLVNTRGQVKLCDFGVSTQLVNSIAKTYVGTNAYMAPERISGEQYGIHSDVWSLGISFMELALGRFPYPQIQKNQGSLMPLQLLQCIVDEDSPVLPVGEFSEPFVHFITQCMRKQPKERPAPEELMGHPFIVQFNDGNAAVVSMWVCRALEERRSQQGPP
Description: Due to our interest in the activity of GW296115 on several understudied IDG kinases, we collected full dose–response curves for all wild type kinases inhibited ≥ 75% in the DiscoverX panel that were offered by Eurofins. Having data in orthogonal formats is a powerful way to confirm inhibitory activity and adds rigor to our results. Eurofins has kinase enzymatic radiometric assays for 35 of the kinases on this list (Table S2) and a kinase enzymatic LANCE assay for one additional kinase (MAP2K5/MEK5).
Eurofins kinase enzymatic radiometric assays were carried out at the Km of ATP in dose–response (9-pt curve in duplicate) for each kinase for which it was offered.

[2] = system: cytoplasmic domain of PDGFR; set-up: method as in PMID 10048786; details: in vitro; read-out: IC50, autophosphorylation of the cytoplasmic domain of PDGFR in vitro; cited from earlier work
PDGFRβ = system: PDGFRβ; set-up: method as in PMID 26501955; details: cited from earlier work
[3] = system: panel of 224 recombinant kinases; set-up: method as in PMID 26501955; details: Nanosyn; cited from earlier work
60 cancer cell lines = system: 60 cancer cell lines; set-up: method as in PMID 26501955; details: cited from earlier work
STK33 = STK33 (Homo sapiens, UniProt Q9BYT3); set-up: purchased Eurofins; method as in earlier work; details: cited from earlier work
AXL = AXL (Homo sapiens, UniProt P30530); assay: DiscoverX scanMAX competition binding assay; set-up: purchased Eurofins DiscoverX Corporation
AXL, sequence (P30530 26-894): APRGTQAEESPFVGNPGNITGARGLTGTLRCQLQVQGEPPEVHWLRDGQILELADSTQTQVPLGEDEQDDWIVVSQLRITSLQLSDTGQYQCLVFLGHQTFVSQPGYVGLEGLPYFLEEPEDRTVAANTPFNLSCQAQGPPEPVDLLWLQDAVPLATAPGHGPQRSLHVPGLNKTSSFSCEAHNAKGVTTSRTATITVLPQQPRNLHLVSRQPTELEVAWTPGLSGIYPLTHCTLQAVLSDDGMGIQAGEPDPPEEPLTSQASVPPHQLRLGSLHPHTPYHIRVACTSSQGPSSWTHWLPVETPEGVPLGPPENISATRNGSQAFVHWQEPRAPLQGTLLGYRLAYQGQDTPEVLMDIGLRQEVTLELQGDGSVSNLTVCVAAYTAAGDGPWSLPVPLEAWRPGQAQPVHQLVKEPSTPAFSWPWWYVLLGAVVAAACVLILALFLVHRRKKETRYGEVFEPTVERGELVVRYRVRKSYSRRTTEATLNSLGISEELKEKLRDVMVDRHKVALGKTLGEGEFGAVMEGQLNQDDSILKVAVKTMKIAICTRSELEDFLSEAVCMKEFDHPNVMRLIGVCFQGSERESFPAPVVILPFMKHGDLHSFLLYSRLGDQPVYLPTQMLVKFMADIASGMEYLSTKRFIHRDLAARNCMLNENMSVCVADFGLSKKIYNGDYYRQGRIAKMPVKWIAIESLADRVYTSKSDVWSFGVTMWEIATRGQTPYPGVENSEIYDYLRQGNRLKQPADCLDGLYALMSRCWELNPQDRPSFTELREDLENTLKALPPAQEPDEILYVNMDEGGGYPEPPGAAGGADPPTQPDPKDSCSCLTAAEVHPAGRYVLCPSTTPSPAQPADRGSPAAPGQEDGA
Description: as §1, §2

BRSK2 = target: T4, BRSK2 (Homo sapiens, UniProt Q8IWQ3); assay: DiscoverX scanMAX competition binding assay; set-up: purchased Eurofins DiscoverX Corporation
T4 sequence (Q8IWQ3 1-736): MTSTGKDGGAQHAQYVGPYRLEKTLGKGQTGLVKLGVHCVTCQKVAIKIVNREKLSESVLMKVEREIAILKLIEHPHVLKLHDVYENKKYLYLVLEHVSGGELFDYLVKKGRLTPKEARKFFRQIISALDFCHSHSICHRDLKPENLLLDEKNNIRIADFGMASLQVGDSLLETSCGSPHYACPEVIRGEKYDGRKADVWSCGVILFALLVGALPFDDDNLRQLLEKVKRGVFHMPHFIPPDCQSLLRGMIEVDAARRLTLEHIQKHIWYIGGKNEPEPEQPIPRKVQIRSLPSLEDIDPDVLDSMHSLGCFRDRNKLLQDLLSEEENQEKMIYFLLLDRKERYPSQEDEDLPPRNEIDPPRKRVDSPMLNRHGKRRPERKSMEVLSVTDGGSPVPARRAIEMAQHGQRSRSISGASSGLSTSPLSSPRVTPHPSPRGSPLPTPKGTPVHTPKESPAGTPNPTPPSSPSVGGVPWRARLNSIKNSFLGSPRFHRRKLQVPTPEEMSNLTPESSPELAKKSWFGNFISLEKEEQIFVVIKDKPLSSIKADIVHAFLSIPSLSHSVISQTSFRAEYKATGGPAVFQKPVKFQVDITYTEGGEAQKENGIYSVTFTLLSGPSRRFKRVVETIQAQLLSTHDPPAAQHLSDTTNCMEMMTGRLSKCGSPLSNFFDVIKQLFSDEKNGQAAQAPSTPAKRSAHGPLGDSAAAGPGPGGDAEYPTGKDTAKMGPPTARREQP
Description: as §1, §2

DAPK1 = DAPK1 (Homo sapiens, UniProt P53355); assay: DiscoverX scanMAX competition binding assay; set-up: purchased Eurofins DiscoverX Corporation
DAPK1, sequence (P53355 whole entry): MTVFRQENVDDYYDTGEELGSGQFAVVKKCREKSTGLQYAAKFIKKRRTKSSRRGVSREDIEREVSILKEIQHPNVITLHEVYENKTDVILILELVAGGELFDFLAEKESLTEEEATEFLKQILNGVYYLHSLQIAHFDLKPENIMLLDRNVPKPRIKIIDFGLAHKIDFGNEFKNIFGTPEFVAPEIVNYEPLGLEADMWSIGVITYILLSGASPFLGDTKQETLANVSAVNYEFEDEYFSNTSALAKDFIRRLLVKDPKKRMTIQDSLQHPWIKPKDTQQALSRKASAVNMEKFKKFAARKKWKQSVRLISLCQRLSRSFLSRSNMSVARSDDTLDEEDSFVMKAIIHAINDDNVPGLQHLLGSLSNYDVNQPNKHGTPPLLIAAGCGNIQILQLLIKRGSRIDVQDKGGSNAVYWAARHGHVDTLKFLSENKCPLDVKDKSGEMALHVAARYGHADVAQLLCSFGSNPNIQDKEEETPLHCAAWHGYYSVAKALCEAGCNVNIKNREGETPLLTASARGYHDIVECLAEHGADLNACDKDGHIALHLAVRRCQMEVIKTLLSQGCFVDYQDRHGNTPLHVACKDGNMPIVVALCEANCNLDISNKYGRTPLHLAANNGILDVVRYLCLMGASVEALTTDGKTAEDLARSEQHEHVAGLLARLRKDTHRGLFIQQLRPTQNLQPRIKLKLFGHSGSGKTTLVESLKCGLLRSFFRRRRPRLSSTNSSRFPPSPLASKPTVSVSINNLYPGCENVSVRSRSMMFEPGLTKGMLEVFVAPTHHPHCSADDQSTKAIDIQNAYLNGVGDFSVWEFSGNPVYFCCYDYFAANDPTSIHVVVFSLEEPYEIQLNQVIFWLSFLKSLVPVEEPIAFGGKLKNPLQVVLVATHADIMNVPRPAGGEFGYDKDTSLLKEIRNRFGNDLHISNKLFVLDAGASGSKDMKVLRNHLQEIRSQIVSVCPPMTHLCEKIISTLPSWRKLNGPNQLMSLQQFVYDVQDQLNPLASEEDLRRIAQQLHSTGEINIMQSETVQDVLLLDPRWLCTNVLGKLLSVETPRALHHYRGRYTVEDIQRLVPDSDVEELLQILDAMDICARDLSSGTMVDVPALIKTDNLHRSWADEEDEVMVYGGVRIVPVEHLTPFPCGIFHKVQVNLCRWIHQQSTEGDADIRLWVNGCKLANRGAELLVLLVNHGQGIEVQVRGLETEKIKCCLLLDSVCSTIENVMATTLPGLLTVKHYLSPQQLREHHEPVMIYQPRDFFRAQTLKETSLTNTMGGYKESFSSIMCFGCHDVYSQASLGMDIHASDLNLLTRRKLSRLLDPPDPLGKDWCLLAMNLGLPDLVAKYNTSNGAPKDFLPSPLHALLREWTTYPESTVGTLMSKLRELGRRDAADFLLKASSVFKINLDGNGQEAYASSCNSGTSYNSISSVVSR
Description: as §1, §2

DCLK3/DCAMKL3 = DCLK3/DCAMKL3 (Homo sapiens, UniProt Q9C098); assay: DiscoverX scanMAX competition binding assay; set-up: purchased Eurofins DiscoverX Corporation
DCLK3/DCAMKL3, sequence (Q9C098 whole entry): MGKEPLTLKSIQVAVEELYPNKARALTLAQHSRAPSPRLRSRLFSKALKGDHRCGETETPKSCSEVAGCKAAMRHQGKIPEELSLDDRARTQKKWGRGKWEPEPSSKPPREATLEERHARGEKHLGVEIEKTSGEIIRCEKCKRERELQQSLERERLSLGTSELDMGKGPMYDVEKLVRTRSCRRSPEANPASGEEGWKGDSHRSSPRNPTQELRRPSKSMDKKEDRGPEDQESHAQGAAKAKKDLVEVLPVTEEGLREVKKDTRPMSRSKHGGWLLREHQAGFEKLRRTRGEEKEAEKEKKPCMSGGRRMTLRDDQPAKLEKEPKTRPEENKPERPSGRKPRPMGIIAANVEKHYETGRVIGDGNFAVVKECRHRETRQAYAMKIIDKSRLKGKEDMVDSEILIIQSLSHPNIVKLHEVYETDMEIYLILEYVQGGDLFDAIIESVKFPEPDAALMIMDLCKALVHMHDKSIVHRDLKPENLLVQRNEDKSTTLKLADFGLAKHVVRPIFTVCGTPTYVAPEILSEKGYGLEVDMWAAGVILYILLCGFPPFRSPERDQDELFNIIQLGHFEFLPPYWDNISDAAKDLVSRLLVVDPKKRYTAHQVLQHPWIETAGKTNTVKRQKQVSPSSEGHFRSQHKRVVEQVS
Description: as §1, §2

DMPK = DMPK (Homo sapiens, UniProt Q09013); assay: DiscoverX scanMAX competition binding assay; set-up: purchased Eurofins DiscoverX Corporation
DMPK, sequence (Q09013 whole entry): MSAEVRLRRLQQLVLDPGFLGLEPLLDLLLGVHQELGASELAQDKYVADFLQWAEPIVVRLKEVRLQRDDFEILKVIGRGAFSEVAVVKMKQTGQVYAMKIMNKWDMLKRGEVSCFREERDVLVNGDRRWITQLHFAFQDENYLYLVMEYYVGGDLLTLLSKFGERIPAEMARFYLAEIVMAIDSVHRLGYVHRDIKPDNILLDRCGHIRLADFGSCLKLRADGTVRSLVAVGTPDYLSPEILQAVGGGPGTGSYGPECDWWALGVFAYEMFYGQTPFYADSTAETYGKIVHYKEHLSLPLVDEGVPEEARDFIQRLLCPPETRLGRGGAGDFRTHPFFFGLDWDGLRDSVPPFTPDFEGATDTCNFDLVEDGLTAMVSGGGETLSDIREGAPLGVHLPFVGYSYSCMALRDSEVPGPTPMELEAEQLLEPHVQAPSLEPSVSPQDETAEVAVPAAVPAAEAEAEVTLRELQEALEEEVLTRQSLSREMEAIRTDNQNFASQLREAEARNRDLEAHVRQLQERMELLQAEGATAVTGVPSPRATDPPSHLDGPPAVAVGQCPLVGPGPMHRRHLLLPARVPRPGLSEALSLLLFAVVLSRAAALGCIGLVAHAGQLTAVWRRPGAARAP
Description: as §1, §2

NUAK1/ARK5 = NUAK1/ARK5 (Homo sapiens, UniProt O60285); assay: DiscoverX scanMAX competition binding assay; set-up: purchased Eurofins DiscoverX Corporation
Description: as §1, §2

PHKG1 = PHKG1 (Homo sapiens, UniProt Q16816); assay: DiscoverX scanMAX competition binding assay; set-up: purchased Eurofins DiscoverX Corporation
PHKG1, sequence (Q16816 whole entry): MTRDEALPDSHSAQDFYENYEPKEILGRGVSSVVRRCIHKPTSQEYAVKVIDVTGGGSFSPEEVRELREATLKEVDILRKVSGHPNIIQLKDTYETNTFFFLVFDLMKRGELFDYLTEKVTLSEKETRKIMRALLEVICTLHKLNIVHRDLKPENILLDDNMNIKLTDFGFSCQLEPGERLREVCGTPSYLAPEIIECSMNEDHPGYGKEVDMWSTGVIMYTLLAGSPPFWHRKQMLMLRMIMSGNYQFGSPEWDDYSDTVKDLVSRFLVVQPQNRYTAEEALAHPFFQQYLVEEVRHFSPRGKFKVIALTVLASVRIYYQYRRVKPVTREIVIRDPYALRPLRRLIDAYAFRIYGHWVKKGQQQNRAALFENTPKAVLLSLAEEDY
Description: as §1, §2

SMILES: COc1ccc2[nH]c3c4[nH]c5ccc(OC)cc5c4c4c(c3c2c1)C(=O)NC4=O [GW296115]
- effect on cell growth [1]: did not impact cell growth
- inhibition at 1 µM (PRKAA2): 20%
- inhibition at 1 µM (CHEK1): 70%
- IC50 (MAP2K5/MEK5): > 10 µM
- IC50 [2]: 1.8 ± 0.12 µM
- Nanosyn % Inhibition at 1 μM (PDGFRβ): 85%
- inhibition at 100 nM of the 3 kinases inhibited > 90% at 1 μM [3]: > 70%
- effect on cell growth, NCI60 panel (60 cancer cell lines): does not impact cell growth
- TSA ΔTm at 10 μM (°C) (STK33): 9.8 °C
- inhibition at 1 µM (AXL): 75%
- inhibition at 1 µM (BRSK2): 83%
- inhibition at 1 µM (DAPK1): 78%
- inhibition at 1 µM (DCLK3/DCAMKL3): 83%
- inhibition at 1 µM (DMPK): 75%
- inhibition at 1 µM (NUAK1/ARK5): 85%
- inhibition at 1 µM (PHKG1): 82%
